Assay results: patent US8557845B2, “Substituted pyrrolo-pyrazole derivatives as kinase inhibitors” (Nerviano Medical Sciences S.R.L., priority 2002, dated 2013)
pIC50: −log10 of the molar value.

These molecules were tested against Cdk2/Cyclin A (Homo sapiens, UniProt P24941) (assay: Inhibition assay of Cdk2/Cyclin A activity (SPA, IC50)). Settings: tested against Cdk2/Cyclin A.
Format: biochemical
Method: The inhibiting activity of putative Cdk/Cyclin inhibitors and the potency of selected compounds was determined through a method of assay based on the use of the SPA technology (Amersham Pharmacia Biotech).
The assay consists of the transfer of radioactivity labelled phosphate moiety by the kinase to a biotinylated substrate. The resulting 33P-labelled biotinylated product is allowed to bind to streptavidin-coated SPA beads (biotin capacity 130 pmol/mg), and light emitted was measured in a scintillation counter.
Inhibition Assay of Cdk2/Cyclin A Activity
4 μM in house biotinylated histone H1 (Sigma #H-5505) substrate, 10 μM ATP (0.1 microCi P^33γ-ATP), 4.2 ng Cdk2/Cyclin A complex, inhibitor in a final volume of 30 μl buffer (TRIS HCl 10 mM pH 7.5, MgCl2 10 mM, DTT 7.5 mM+0.2 mg/ml BSA) were added to each well of a 96 U bottom. After 30 min at r.t. incubation, reaction was stopped by 100 μl PBS+32 mM EDTA+0.1% Triton X-100+500 μM ATP, containing 1 mg SPA beads. Then a volume of 110 μl is transferred to Optiplate.
After 20 min. incubation for substrate capture, 100 μl 5M CsCl were added to allow statification of beads to the top of the plate and let stand 4 hours before radioactivity counting in the Top-Count instrument.
inhibitors were tested at different concentrations ranging from 0.0015 to 10 μM. Experimental data were analyzed by the computer program GraphPad Prizm using the four parameter logistic equation: y=bottom+(top−bottom)/(1+10^((log IC50−x)*slope)) where x is the logarithm of the inhibitor concentration, y is the response; y starts at bottom and goes to top with a sigmoid shape.
Molecule `CC(C)(C)C(=O)N1Cc2c(NC(=O)c3ccc(F)cc3)n[nH]c2C1(C)C` [Compound 1, N-[5-(2,2-dimethylpropanoyl)-6,6-dimethyl-1,4,5,6-tetrahydropyrrolo[3,4-c]pyrazol-3-yl]-4-fluorobenzamide] has a pIC50 of 7.52.
Molecule `CC(C)(C)C(=O)N1Cc2c(NC(=O)c3ccc(F)cc3)n[nH]c2C12CC2` [Compound 2, N-[5-(2,2-dimethylpropanoyl)-1,4,5,6-tetrahydropyrrolo[3,4-c]pyrazol-6-spirocyclopropan-3-yl]-4-fluorobenzamide] has a pIC50 of 7.60.
Molecule `CC(=O)N1Cc2c(NC(=O)c3cccc(Br)c3)n[nH]c2C1(C)C` [Reference Compound, N-[5-acetyl-6,6-dimethyl-4,6-dihydropyrrolo[3,4-c]pyrazol-3-yl]-(3-bromo)benzamide, reference compound] has a pIC50 of 5.77.
